Assay results as given in BigSolDB 2.1.

O=C(Nc1ccc(F)cc1F)c1cccnc1Oc1cccc(C(F)(F)F)c1
solubility (mole fraction)
Details	278.15 K	283.15 K	288.15 K	293.15 K	298.15 K	303.15 K	308.15 K	313.15 K	318.15 K	323.15 K
in acetone	0.00903	0.0107	0.0127	0.0152	0.018	0.021	0.0247	0.029	0.0339	0.0408
in cyclohexane	–	0.000103	0.000162	0.000229	0.000334	0.000458	0.000613	0.000806	0.00112	0.00147
in ethanol	0.000251	0.000332	0.00043	0.000545	0.000681	0.000857	0.00107	0.00139	0.00173	0.00214
in isopropanol	4.65e-05	7.36e-05	0.000116	0.000183	0.000282	0.000431	0.000665	0.001	0.00152	0.0022
in methanol	0.000235	0.000293	0.000377	0.000474	0.0006	0.00075	0.000938	0.00117	0.00147	0.00187
in toluene	0.00513	0.00638	0.00779	0.00954	0.0116	0.0142	0.0177	0.0215	0.0252	0.0303
